Data set [1] concerns SCA3 transgenic mice expressing ataxin-3-Q79. Kind of data set: SCA3 transgenic mice: rotarod test and NeuN staining of pontine nuclei. Particulars: 4-month-old SCA3 transgenic mice, daily oral 1 mg per day. For orientation: In the rotarod test animals must keep their balance on a rotating rod.
Procedure: (A) SCA3 transgenic mice were given drinking water containing vehicle (0.2% DMSO) or T1-11 (0.1 mg/ml) beginning at 4 weeks-old.
Behavioral test. Balance and coordination functions of mice were determined by performing rotarod test. Mice were placed on the moving drum of a rotarod apparatus (Accelerating Model, Ugo Basile Biological Research Apparatus), which was then accelerated until mouse fell from the drum onto a plate to stop the timer. Latency to fall was measured in four daily trials over the course of 4 days.
Immunohistochemical staining. Wild-type or SCA3 transgenic mice were anesthetized and perfused transcardially with 4% paraformaldehyde in PBS. Brain was equilibrated in Tissue-Tek embedding medium and frozen in liquid nitrogen. Coronal sections (20 μm) prepared by cryostat sectioning were permeabilized in 0.1% Triton X-100, and incubated at 4° C. for 48 hours with diluted anti-NeuN monoclonal antiserum (Chemicon). Subsequently, sections were washed and incubated with biotinylated horse anti-mouse IgG followed by incubation with avidin-biotin-horseradish peroxidase complex. The sections were then washed and developed in a diaminobenzidine solution. NeuN-positive neurons were visualized and counted by a Leica DM2500 microscope equipped with a Retiga-2000R CCD camera (QImaging) and a 3-axis computer-controlled MAC 600 motorized stage (Ludl Electronics) with the aid of StereoInvestigator software (MBF Bioscience). Each analysis included the processing of 15 brain sections per mouse.
For data set [2], the system named is mice treated with intermittent cold stress. Kind of data set: Intermittent cold stress model of fibromyalgia. The conditions noted are these: T1-11 i.p. It is filed as in vivo. On the procedure:
(§1) FIGS. 10A-C show the analgesic effect of JMF3464 on a mouse model of fibromyalgia. […] Open arrows indicate the time mice received acid injection. Black arrows indicate the time mice received T1-11 (p.o.). […] The analgesic effect of JMF3464 is dose-dependent. The effective dose started from 100 μg/kg (i.p.).
Intermittent cold stress model. The fibromyalgia model was developed by Ueda's group, in which mice were treated with intermittent cold stress for 2 days (Nishiyori and Ueda, 2008 Mol Pain. 4:52). Mice treated with intermittent cold stress developed long-lasting (>2 weeks) mechanical and thermal hyperalgesia. Analgesic effects of JMF3464 (i.p. or p.o.) were tested in these mice 5 days after intermittent cold stress. Mechanical hyperalgesia was assayed by testing the withdrawal response of mouse hindpaws to 0.2-mN von Frey filament stimulation.

A short description of data set [3]: Oral bioavailability / pharmacokinetic study in ICR mice. Particulars: male, mouse, plasma, oral 10 mg/kg vs intravenous 1 mg/kg. Type of data set: in vivo. On the procedure: To measure oral bioavailability of a test compound, blood samples were collected from male ICR mice (6 weeks old; 20-25 g) after oral (10 mg/kg) or intravenous (1 mg/kg) administrations of the test compound. The blood samples collected at the indicated periods were extracted with methanol containing 0.1% formic acid, and then 10 μL of each extracted sample were injected to UPLC-MSMS for quantitation.
Pharmacokinetic Study. The compound was administered as aqueous solutions in normal saline. Male ICR mice were purchased from BioLASCO Taiwan Co., Ltd. To measure oral bioavailability of test compounds (T1-11 and JMF3464), blood samples were collected from male ICR mice (6 weeks old; […]) after oral (10 mg/kg) or intravenous (1 mg/kg) administrations of test compounds. For T1-11, blood samples were collected at 2, 10, 30, 60, 120, 360 minutes after intravenous administration and at 15, 30, 45, 60, 120, 360 minutes after oral administration. For JMF3464, the blood samples were collected at 2, 10, 30, 60, 120, 240, 360, 480 minutes after intravenous administration and at 15, 30, 60, 90, 120, 240, 360, 480 minutes after oral administration. The blood samples were extracted by methanol with 0.1% formic acid, and then 10 μL of the extracted samples were injected to UPLC-MSMS to for quantitation.
The pharmacokinetic parameters were obtained using a pharmacokinetic program WinNonlin, fitting data to a noncompartmental model. […] The total plasma clearance (CL) was calculated as dose/AUCi.v.. The oral bioavailability (F) of the test compound by oral administration was calculated from the AUC0-∞ of the oral dose divided by the AUC0-∞ of the i.v. dose.

The conditions of data set [4]: background statement, species not given; cited from earlier work.
Data set [5] deals with SCA2 transgenic mice (ATAXN2^Q127). Kind of data set: Rotarod performance of SCA2 transgenic mice. It is filed as in vivo. The conditions noted are these: compound in drinking water. On the procedure: (§2) FIGS. 4A-B show the effects of T1-11 in preventing mutant SCA2 gene overexpression-induced protein aggregations and behavioral performance in SCA2 transgenic mice. (A) pSCA2-22Q-EGFP or pSCA2-104Q-EGFP-transfected cells were treated with 10 μM T1-11 or 10 μM JMF1907 (a T1-11-derived A2A-R agonist) for 24 h. Cells were harvested and subjected to a filter retardation assay or image acquisition. (B) Wild type (WT) or transgenic mice (SCA2) drank water with or without T1-11. Rotarod performance was used to measure the behavioral function of mice.
Animals. The C57BL/6 mice were purchased from National Laboratory Animal Center (Taiwan). The transgenic mice (ATAXN2^Q127) were provided by Dr. Pulst. Mice were kept in a soundproof room under a 12/12 h light/dark cycle and controlled temperature (22±2° C.). Food and water were available ad libitum. All efforts were made to minimize the number of animals used and their pain and discomfort, according to the principles and directives of the NIH Guide for the Care and Use of Laboratory Animals. […]
Rotarod performance. […] Motor coordination was assessed using a rotarod apparatus (UGO BASILE, Comerio, Italy) at an accelerated speed (10 to 28 rpm) over a period of 5 min. […] Latency to fall was automatically recorded. […]

Data set [6] deals with mutant ATXN2 aggregations. Kind of data set: Filter retardation assay of mutant SCA2 protein aggregation in pSCA2-104Q-EGFP-transfected cells. Particulars: 10 μM, 24 h. Type of data set: cell-based, Rat. On the procedure: as §2
Rat PC12 cells purchased from American Type Culture Collection (ATCC; Manassas, Va., USA) were maintained in DMEM supplemented with 10% horse serum and 5% FBS and incubated in a CO2 incubator (5%) at 37° C. LIPOFECTAMINE™ 2000 (Invitrogen) was used as a vehicle to transfer plasmids into cells according to the manufacture's protocol. Plasmids were kindly provided by Dr. Pulst (Department of Neurology, University of Utah, USA). Normally, 5 μg of DNA combined with 5 μl of LIPOFECTAMINE™ 2000 was applied to each well of 6-well plates. The plating number was (1˜1.5)×10^6 cells/well. After transfections for 6 h, cells were treated with reagents for another 24 h. Images were taken with a Zeiss Axiovert 200M inverted fluorescence microscope (Göttingen, Germany).
Filter retardation assay. […]

For data set [7], the system named is mice with acid-induced chronic widespread pain. Kind of data set: Acid-induced chronic widespread pain model of fibromyalgia. It is filed as in vivo. On the procedure:
as §1
Acid-induced chronic widespread pain model. The fibromyalgia model was modified from the acid-induced chronic pain model established by Sluka's group (Sluka et al., 2003 Pain. 106:229-239).
Mice were briefly anesthetized with 2% vaporized isoflurane and received an i.m. injection of 20 μL genistein (1 μM) in the left gastrocnemius muscle. After 3 minutes, an injection of 20 μL acid saline (pH 4.0) was given to the same site. The mice then developed long-lasting mechanical hyperalgesia for more than 2 weeks. Analgesic effects of T1-11 (p.o. with an 0.9-mm/7-cm gavage) were tested 4 days after mice had developed the mechanical hyperalgesia. Mechanical hyperalgesia was assayed by testing the withdrawal response of mouse hindpaws to 0.2-mN von Frey filament stimulation.

The structures appear in SMILES notation. “Also recorded” adds a separate entry of the source.

For orientation: bioavailability means the share of a dose that reaches the circulation, judged against a reference dose that is usually intravenous. Read a low bioavailability as little systemic uptake.

Turning to `OC[C@H]1O[C@@H](n2cnc3c(NCc4ccc(O)cc4)ncnc32)[C@H](O)[C@@H]1O` [Compound T1-11, N^6-(4-hydroxybenzyl)adenosine], in data set [1], the “pontine neuronal death (NeuN staining)” value was “significantly ameliorated neuronal death in the pontine nuclei; also recorded: significantly alleviated pontine neuronal death” and the rotarod performance entry is given as “significantly better than that of vehicle-treated ataxin-3-Q79 mice; also recorded: significantly improved rotarod performance”. Besides, the “analgesic effect, i.p.” value in data set [2] is “excellent analgesic effects”. Also, in data set [3], the bioavailability amounted to 2.8%. The “bioavailability (F)” value in data set [4] was below 5%. In addition, in data set [5], the “behavioral performance (rotarod)” value is on record as “effective”. Also, the “mutant ATXN2 aggregations” value in data set [6] was “effective is preventing mutant ATXN2 aggregations”. Moreover, the “analgesic effect, i.p.” value in data set [7] (i.p.) was “excellent analgesic effects”. The “analgesic effect, oral administration” value in data set [7] (p.o., up to 2 mg/kg, von Frey mechanical hyperalgesia) is given as “no analgesic effect”.

Values taken from patent US10301348B2, “Compounds for use in prevention and treatment of neurodegenerative diseases and pain” (Academia Sinica, priority 2013, dated 2019).
